Columns and labels:
Experiment in all cases: Inhibition Assay
Conditions in all cases: pH 8; 25 °C
[1] = molecular target: T1, Deoxyuridine 5'-triphosphate nucleotidohydrolase (Plasmodium falciparum (isolate 3D7), UniProt Q8II92)
T1 sequence (Q8II92 whole entry): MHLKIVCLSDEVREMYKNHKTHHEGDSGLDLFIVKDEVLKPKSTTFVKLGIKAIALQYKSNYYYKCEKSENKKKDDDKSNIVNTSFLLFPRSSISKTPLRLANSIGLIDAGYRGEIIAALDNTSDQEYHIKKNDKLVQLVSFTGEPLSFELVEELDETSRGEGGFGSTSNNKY
From the text: (§1) Nucleotide hydrolysis was monitored by mixing enzyme and substrate with a rapid kinetic accessory (Hi-Tech Scientific) attached to a spectrophotometer (Cary 50). Protons, released through the hydrolysis of nucleotides, were neutralized with […] and monitored spectrophotometrically at the absorbance peak of the basic form of the indicator.

[2] = molecular target: T2, Deoxyuridine 5'-triphosphate nucleotidohydrolase, mitochondrial (Homo sapiens, UniProt P33316)
T2 sequence (P33316 whole entry): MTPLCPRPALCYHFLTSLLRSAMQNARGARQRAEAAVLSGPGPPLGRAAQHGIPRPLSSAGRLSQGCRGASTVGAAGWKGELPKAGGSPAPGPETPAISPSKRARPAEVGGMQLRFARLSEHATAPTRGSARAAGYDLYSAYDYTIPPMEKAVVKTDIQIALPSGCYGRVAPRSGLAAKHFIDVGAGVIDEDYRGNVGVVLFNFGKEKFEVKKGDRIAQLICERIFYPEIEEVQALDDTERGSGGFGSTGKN
From the text: as §1

dCTP deaminase = molecular target: T3, dCTP deaminase (Campylobacter jejuni subsp. jejuni serotype O:2 (strain ATCC 700819 / NCTC 11168), UniProt Q9PN07)
T3 sequence (Q9PN07 whole entry): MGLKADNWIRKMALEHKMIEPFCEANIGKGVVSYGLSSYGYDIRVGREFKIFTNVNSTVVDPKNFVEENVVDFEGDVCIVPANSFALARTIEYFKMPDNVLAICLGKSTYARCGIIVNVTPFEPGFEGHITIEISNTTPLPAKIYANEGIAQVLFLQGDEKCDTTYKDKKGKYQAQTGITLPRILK
From the text: as §1

SMILES	Ki [1]	Ki [2]	Ki (dCTP deaminase)
CC(C)(C)[Si](OCC1OC(n2ccc(=O)[nH]c2=O)CC1O)(c1ccccc1)c1ccccc1 (stereo not drawn)	4.2 µM	805 µM	
O=c1ccn(C2CC(O)C(CO[Si](c3ccccc3)(c3ccccc3)c3ccccc3)O2)c(=O)[nH]1 (stereo not drawn)	2.8 µM	908 µM	
CC(C)[Si](OCC1OC(n2ccc(=O)[nH]c2=O)CC1O)(C(C)C)C(C)C (stereo not drawn)	227 µM	1000 µM	
O=c1ccn(C2CC(O)C(CNCc3ccccc3)O2)c(=O)[nH]1 (stereo not drawn)		1000 µM	
O=c1ccn(C2CC(O)C(COP(=O)(Oc3ccccc3)Oc3ccccc3)O2)c(=O)[nH]1 (stereo not drawn) [dUTPase inhibitor, 1]	238 µM	135 µM	1000 µM
O=c1ccn(C2C=CC(COC(c3ccccc3)(c3ccccc3)c3ccccc3)O2)c(=O)[nH]1 (stereo not drawn) [dUTPase inhibitor, 2]			1000 µM
O=C(OCC1C=CC(n2ccc(=O)[nH]c2=O)O1)C12CC3CC(CC(C3)C1)C2 (stereo not drawn) [dUTPase inhibitor, 3]	57.7 µM	298 µM	547 µM
CC(C)(C)[Si](OCC1C=CC(n2ccc(=O)[nH]c2=O)O1)(c1ccccc1)c1ccccc1 (stereo not drawn) [dUTPase inhibitor, 5]	1.16 µM	> 1000 µM	
CC(C)(C)[Si](C)(C)OCC1OC(n2ccc(=O)[nH]c2=O)CC1F (stereo not drawn) [dUTPase inhibitor, 6]	6.28 µM	> 1000 µM	

From BindingDB's records for doi:10.1080/14756360801915476 (Instituto De Parastiologia Y Biomedicina "Lopez-Neyra, 2009)
